Species: Rattus norvegicus
Assay: DrugMatrix - Regimen: Daily Repeat
Format: toxicity, organism-based, Sprague-Dawley
Design: regimen Daily Repeat, gender Male, age 6-8 weeks
Conditions: in vivo, po, route oral GAVAGE, […]; for ABSOLUTE BASOPHIL / ABSOLUTE EOSINOPHIL / ABSOLUTE LYMPHOCYTE / ABSOLUTE MONOCYTE / ABSOLUTE SEGMENTED NEUTROPHIL / BASOPHIL / EOSINOPHIL / ERYTHROCYTE COUNT / HEMATOCRIT / HEMOGLOBIN / LEUKOCYTE COUNT / LYMPHOCYTE / MEAN CORPUSCULAR HEMOGLOBIN / MEAN CORPUSCULAR HEMOGLOBIN CONCENTRATION / MEAN CORPUSCULAR VOLUME / MONOCYTE / NEUTROPHIL / NUCLEATED RED BLOOD CELLS / PLATELET COUNT: tissue Blood; for ALANINE AMINOTRANSFERASE / ALBUMIN / ALKALINE PHOSPHATASE / ASPARTATE AMINOTRANSFERASE / BLOOD UREA NITROGEN / CARBON DIOXIDE / CHLORIDE / CHOLESTEROL / CREATINE PHOSPHOKINASE / CREATININE / GLUCOSE / LACTATE DEHYDROGENASE / LIPASE / PHOSPHORUS / POTASSIUM / SODIUM / TOTAL BILIRUBIN / TOTAL PROTEIN / URIC ACID: tissue Plasma
[1] = 10 mg/kg, 120 h, dose level Low, time 5 day
[2] = 92 mg/kg, 72 h, dose level High, time 3 day
[3] = 92 mg/kg, 120 h, dose level High, time 5 day

c1ccc2[nH]c(-c3cscn3)nc2c1 [THIABENDAZOLE]
ABSOLUTE BASOPHIL [1]: 0 CELLS/uL
ABSOLUTE EOSINOPHIL [1]: 61 CELLS/uL
ABSOLUTE LYMPHOCYTE [1]: 15391 CELLS/uL
ABSOLUTE MONOCYTE [1]: 225.67 CELLS/uL
ABSOLUTE SEGMENTED NEUTROPHIL [1]: 1089 CELLS/uL
BASOPHIL [1]: 0%
EOSINOPHIL [1]: 0.33%
ERYTHROCYTE COUNT [1]: 6.11 x10E6/uL
HEMATOCRIT [1]: 37.8%
HEMOGLOBIN [1]: 14.63 G/DL
LEUKOCYTE COUNT [1]: 16.77 x10E3/uL
LYMPHOCYTE [1]: 92%
MEAN CORPUSCULAR HEMOGLOBIN [1]: 23.97 pg
MEAN CORPUSCULAR HEMOGLOBIN CONCENTRATION [1]: 38.7 G/DL
MEAN CORPUSCULAR VOLUME [1]: 61.9 fL
MONOCYTE [1]: 1.33%
NEUTROPHIL [1]: 6.33%
NUCLEATED RED BLOOD CELLS [1]: 0 /100WBC
PLATELET COUNT [1]: 1202.33 x10E3/uL
ALANINE AMINOTRANSFERASE [1]: 79.33 u/L
ALBUMIN [1]: 4 G/DL
ALKALINE PHOSPHATASE [1]: 420.33 u/L
ASPARTATE AMINOTRANSFERASE [1]: 82.33 u/L
BLOOD UREA NITROGEN [1]: 12.33 mg/dL
CARBON DIOXIDE [1]: 30.67 mmol/L
CHLORIDE [1]: 100.67 MEQ/L
CHOLESTEROL [1]: 66.33 mg/dL
CREATINE PHOSPHOKINASE [1]: 192 u/L
CREATININE [1]: 0.19 mg/dL
GLUCOSE [1]: 163.67 mg/dL
LACTATE DEHYDROGENASE [1]: 183 u/L
LIPASE [1]: 10.33 u/L
PHOSPHORUS [1]: 11.47 mg/dL
POTASSIUM [1]: 6.52 MEQ/L
SODIUM [1]: 143.07 MEQ/L
TOTAL BILIRUBIN [1]: 0.13 mg/dL
TOTAL PROTEIN [1]: 5.6 G/DL
URIC ACID [1]: 1.87 mg/dL
ABSOLUTE BASOPHIL [2]: 0 CELLS/uL
ABSOLUTE EOSINOPHIL [2]: 24 CELLS/uL
ABSOLUTE LYMPHOCYTE [2]: 7261 CELLS/uL
ABSOLUTE MONOCYTE [2]: 24 CELLS/uL
ABSOLUTE SEGMENTED NEUTROPHIL [2]: 591 CELLS/uL
BASOPHIL [2]: 0%
EOSINOPHIL [2]: 0.33%
ERYTHROCYTE COUNT [2]: 5.57 x10E6/uL
HEMATOCRIT [2]: 35.07%
HEMOGLOBIN [2]: 13.8 G/DL
LEUKOCYTE COUNT [2]: 7.9 x10E3/uL
LYMPHOCYTE [2]: 91.33%
MEAN CORPUSCULAR HEMOGLOBIN [2]: 24.83 pg
MEAN CORPUSCULAR HEMOGLOBIN CONCENTRATION [2]: 39.4 G/DL
MEAN CORPUSCULAR VOLUME [2]: 63.07 fL
MONOCYTE [2]: 0.33%
NEUTROPHIL [2]: 8%
NUCLEATED RED BLOOD CELLS [2]: 0.33 /100WBC
PLATELET COUNT [2]: 1094.67 x10E3/uL
ALANINE AMINOTRANSFERASE [2]: 74.33 u/L
ALBUMIN [2]: 4.13 G/DL
ALKALINE PHOSPHATASE [2]: 448.67 u/L
ASPARTATE AMINOTRANSFERASE [2]: 82 u/L
BLOOD UREA NITROGEN [2]: 11.67 mg/dL
CARBON DIOXIDE [2]: 25 mmol/L
CHLORIDE [2]: 95.67 MEQ/L
CHOLESTEROL [2]: 85 mg/dL
CREATINE PHOSPHOKINASE [2]: 153.33 u/L
CREATININE [2]: 0.32 mg/dL
GLUCOSE [2]: 135.67 mg/dL
LACTATE DEHYDROGENASE [2]: 102 u/L
LIPASE [2]: 9.33 u/L
PHOSPHORUS [2]: 9.53 mg/dL
POTASSIUM [2]: 5.43 MEQ/L
SODIUM [2]: 139.33 MEQ/L
TOTAL BILIRUBIN [2]: 0.13 mg/dL
TOTAL PROTEIN [2]: 5.73 G/DL
URIC ACID [2]: 0.6 mg/dL
ABSOLUTE BASOPHIL [3]: 0 CELLS/uL
ABSOLUTE EOSINOPHIL [3]: 47 CELLS/uL
ABSOLUTE LYMPHOCYTE [3]: 13905 CELLS/uL
ABSOLUTE MONOCYTE [3]: 244.33 CELLS/uL
ABSOLUTE SEGMENTED NEUTROPHIL [3]: 703.67 CELLS/uL
BASOPHIL [3]: 0%
EOSINOPHIL [3]: 0.33%
ERYTHROCYTE COUNT [3]: 6.23 x10E6/uL
HEMATOCRIT [3]: 39.1%
HEMOGLOBIN [3]: 15 G/DL
LEUKOCYTE COUNT [3]: 14.9 x10E3/uL
LYMPHOCYTE [3]: 93.33%
MEAN CORPUSCULAR HEMOGLOBIN [3]: 24.1 pg
MEAN CORPUSCULAR HEMOGLOBIN CONCENTRATION [3]: 38.37 G/DL
MEAN CORPUSCULAR VOLUME [3]: 62.7 fL
MONOCYTE [3]: 1.67%
NEUTROPHIL [3]: 4.67%
NUCLEATED RED BLOOD CELLS [3]: 0 /100WBC
PLATELET COUNT [3]: 1269.33 x10E3/uL
ALANINE AMINOTRANSFERASE [3]: 73.33 u/L
ALBUMIN [3]: 4.13 G/DL
ALKALINE PHOSPHATASE [3]: 474.33 u/L
ASPARTATE AMINOTRANSFERASE [3]: 82 u/L
BLOOD UREA NITROGEN [3]: 13.33 mg/dL
CARBON DIOXIDE [3]: 25.67 mmol/L
CHLORIDE [3]: 101 MEQ/L
CHOLESTEROL [3]: 64.33 mg/dL
CREATINE PHOSPHOKINASE [3]: 344.33 u/L
CREATININE [3]: 0.18 mg/dL
GLUCOSE [3]: 187 mg/dL
LACTATE DEHYDROGENASE [3]: 278 u/L
LIPASE [3]: 10.33 u/L
PHOSPHORUS [3]: 12.03 mg/dL
POTASSIUM [3]: 6.59 MEQ/L
SODIUM [3]: 141.23 MEQ/L
TOTAL BILIRUBIN [3]: 0.2 mg/dL
TOTAL PROTEIN [3]: 5.7 G/DL
URIC ACID [3]: 2.43 mg/dL
